{"source": "patent US20240216476A1", "about": "“COMBINATION OF BITTER RECEPTOR AGONIST AND GUT-SIGNALING COMPOUND” (AARDVARK THERAPEUTICS, INC., priority 2021, published 2024)", "key": {"[1]": {"system": "high fat diet induced obese (DIO) mouse model", "assay": "4-week study of DA, liraglutide or their combination in high fat diet induced obese (DIO) mice (Example 2)", "format": "in vivo", "procedure": "After arrival at the testing facility, all animals were acclimated to the vivarium for a period no less than 3 days and placed on a 60% Fat Rodent Diet (D12492; Research Diets), 12:12 dark/light cycle and group housed, 2-3 in hepa-filtered cages. All treatments were continued for four weeks. During the study period, gross observation (animal behavior and clinical signs) was conducted, and body weight measurement was performed three times per week for each animal. At the end of the study, all animals were fasted overnight before measurements were taken for serum levels of glucose, insulin, hemoglobin A1c (HbA1c), low-density lipoprotein (LDL) cholesterol, high-density lipoprotein (HDL) cholesterol, triglyceride (TG), and bile acid (BA). Statistical analysis of data was performed using one tail Student's t-test on Excel."}, "[2]": {"system": "gut peptide hormones GLP-1, GLP-2 and PYY", "assay": "Phase 1 clinical trial of DA: gut peptide hormones before and one hour after a single oral dose (Example 3)", "format": "in vivo, human", "conditions": "in words, single dose DA 240 mg tablet vs placebo", "procedure": "This Example provides data of three gut peptide hormones from a phase 1 clinical trial of denatonium acetate after a single dose of DA at 240 mg in a tablet in the formulation disclosed herein. The subjects were either placebo or 240 mg DA and blood samples were taken just prior to dosing and one hour after oral dosing."}, "[3]": {"conditions": "human, in vivo, po", "excerpt": "Accordingly, the gut peptide hormone data in both the in vivo studies in the examples herein and the phase 1 clinical trial data in Example 3 show synergy for the treatment and/or management of glucagon-related diseases, disorders or conditions, various indications. […] The clinical data also corroborated the DIO mouse data (Example 2). Yet, the marketers of GLP-1 agonists (like those available from Novo Nordisk, Lilly) claim only GLP-1 is important for both diabetes and weight loss. Also, DPP-4 is an enzyme that degrades GLP-1 and PYY to give both of those hormones short half-lives. Accordingly, in some embodiments herein, a DPP-4 inhibitor is used as part of the API combination.\nTherefore, both the pharmacokinetic data in a clinical trial (Example 3) for DA and the pharmacokinetic data published for commercially-marketed sitagliptin, support non-cumulative toxicity risk. Accordingly, DPP-4i drugs and the denatonium salts listed herein are an effective oral combination for the treatment of obesity.\nFor sitagliptin as a single agent, the current guidelines indicate a daily dose of 100 mg PO QD (notwithstanding for those with renal impairment, recommended doses can be as low as 25 mg to 50 mg PO QD). […] In view of DA's pharmacokinetics (substantial gut restriction) and relatively non-toxic nature, the optimal dose ranges can be safely adjusted higher. […]"}, "[4]": {"system": "high-fat diet-induced obese (DIO) mice", "format": "in vivo", "conditions": "in words", "procedure": "This Example provides the results from an in vivo study of denatonium acetate and sitagliptin in high-fat diet-induced obese (DIO) mice. C57BL/6NTac mice (at least 12 weeks of age) were fed with a high fat diet. All mice were dosed orally by gavage as (a) Vehicle group (N=15) dosed with distilled water BID, (b) DA group (N=15) dosed at 75 mg/kg (denatonium weight) BID; (c) sitagliptin group (N=15) dosed by gavage with 10 mg/kg QD; and (d) DA+ sitagliptin group (N=15) treated with DA at 75 mg/kg (denatonium based weight) BID and sitagliptin at 10 mg/kg by gavage QD. The groups were dosed for 8 weeks followed by a 5-7 day […] period. Body weight and body weight changes were measured three times per week. Serum biomarker levels for blood glucose (after fasting 6-8 hours), blood insulin, percentage of blood HvA1c, HDL, LDL, total triglycerides (TG), total cholesterol (TC) and bile acid were measured twice during the study at day 28 and at the end (day 56) of the study. Cumulative food intake and water consumption for each animal was measured."}, "[5]": {"system": "AMLN-diet induced mice (fatty liver disease/NASH model)", "format": "in vivo", "conditions": "in words", "excerpt": "This Example provides the results obtained from an in vivo mouse model of fatty liver disease treatment to investigate the therapeutic effect of DA on the treatment of NASH versus positive control semaglutide (a GLP-1 agonist marketed drug for lowering HbA1c). This study used a positive control semaglutide, a vehicle control, study drug DA and a combination of semaglutide and DA. Mouse strain (B6 mice) was used, and the animals were already adults (23 weeks old) when the study began because the animals were already fed an AMLN diet for 17 weeks prior to the study being initiated. The study dose began at 75 mg/kg BID.\nThe study included 3 groups of 10 mice each, (A) vehicle control with distilled water by gavage BID, (B) DA by gavage BID, and (C) semaglutide […] sc QD. Body weights and changes were measured 3× per week. Serum metabolic markers (blood glucose, blood insulin, HbA1c, HDL, LDL triglycerides and bile acids) were measured at beginning of dosing (baseline) and end of study. At the end of the study, histopathology of liver samples and serum levels of inflammatory biomarkers (IL-6, TNFα, CK-18 and TGF-β) were evaluated. Histopathology was performed blindly with a scoring scale according to NAFLD Activity Score and Fibrosis Score according to Table 13. Table 14 identifies the kits and equipment used to measure serum parameters."}, "ob/ob mice": {"system": "ob/ob mice", "assay": "DA in ob/ob mice fed with high-fat diet, 8 weeks (Table 10)", "format": "in vivo, mouse", "conditions": "DA 50 mg/kg BID for 8 weeks", "excerpt": "The data for the DPP-4 inhibitors was obtained from J. Clin. Biochem. Nutr. 2015; 57(3):244-53. Acta Pharmacol. Sin. 2012; 33(8): 1013-22. J. Pharmacol. Exp. Ther. 2012; 342(1): 71-80; and Eur. J. Pharmacol. 2008; 588(2-3):325-32."}, "[6]": {"system": "C57Bl/6J mice fed with high-fat diet", "assay": "DA in C57Bl/6J mice fed with high-fat diet, 8 weeks (Table 11)", "format": "in vivo, mouse", "excerpt": "Similarly, Table 11 provides a comparison of denatonium acetate (DA) with DPP-4 inhibitors in similar ob/ob mice model. The data for the DPP-4 inhibitors was obtained from Am. J. Physiol. Endocrinol. Metab. 2011; 300(2); E410-E421. Biochim. Biophys. Acta Gen. Subj. 2018; 1862(3):403-413. PLOS One. 2012; 7(6):e38744; and Aging Cell. 2019; 18(2):e12883."}, "[7]": {"assay": "Appetite suppression effect of DA in animals", "format": "in vivo", "excerpt": "Thus, twice daily dosing is preferred for abrogation of appetite throughout the day. […] Therefore, the preferred dosing for MetS treatment is QD."}, "[8]": {"conditions": "in vivo; cited from earlier work"}, "[9]": {"conditions": "pig, in vivo; cited from earlier work"}, "[10]": {"conditions": "in vivo; cited from earlier work", "remark": "listed apart in the source"}, "[11]": {"conditions": "each animal, end of study (Day 31), DA 75 mg/kg PO BID, liraglutide 200 μg/kg SC BID, 4-week dosing"}, "[12]": {"conditions": "group mean, end of study (Day 31), DA 75 mg/kg PO BID, liraglutide 200 μg/kg SC BID, 4-week dosing"}, "[13]": {"conditions": "in words, vs vehicle, Day 31, DA 75 mg/kg PO BID, liraglutide 200 μg/kg SC BID"}, "[14]": {"conditions": "in words, Day 31, 4-week dosing"}}, "note": "Several values for one entry are separate records, joined by “and”; a condition that tells them apart may be missing. Equal entries are not always repeated. Entries after “also recorded” stand apart in the source; their conditions may differ. Where two headings read alike, the source gives them in different places. Marks after values point to notes of the source that are not given here."}
{"compound": "CC(=O)[O-].CC[N+](CC)(CC(=O)Nc1c(C)cccc1C)Cc1ccccc1", "note": "[DA, denatonium acetate]", "values": [{"measurement": "Body Weight Gain", "setting": "[1]; [11]", "value": "10.1 g and 6.7 g and 7.2 g (3×) and 9.6 g (2×) and 7.4 g and 5.2 g and 7 g and 8.1 g and 6.9 g and 11.2 g and 4.5 g and 7.5 g"}, {"measurement": "Serum TG Level", "setting": "[1]; [11]", "value": "13.06 mmol/L and 13.49 mmol/L and 11.69 mmol/L and 13.35 mmol/L and 18.18 mmol/L and 14.27 mmol/L and 15.38 mmol/L and 12.93 mmol/L and 15.46 mmol/L and 19.24 mmol/L and 11.73 mmol/L and 15.13 mmol/L and 13.72 mmol/L and 13.59 mmol/L and 15.48 mmol/L"}, {"measurement": "Body Weight Gain, Mean", "setting": "[1]; [12]", "value": 7.69, "unit": "g"}, {"measurement": "Serum TG Level, Mean", "setting": "[1]; [12]", "value": 14.45, "unit": "mmol/L"}, {"measurement": "serum BA level", "setting": "[1]; in words, vs vehicle control, Day 31, 4-week dosing", "value": "significant increase in serum BA level"}, {"measurement": "Body Weight Gain", "setting": "[1]; [13]", "value": "significantly reduced"}, {"measurement": "Serum TG Level", "setting": "[1]; [13]", "value": "significantly decreased serum TG level"}, {"measurement": "serum HbA1c level", "setting": "[1]; [14]", "value": "did not show significant effect"}, {"measurement": "serum LDL level", "setting": "[1]; [14]", "value": "no significant difference in serum LDL level"}, {"measurement": "serum glucose level", "setting": "[1]; [14]", "value": "significantly decreased serum glucose level"}, {"measurement": "serum insulin level", "setting": "[1]; [14]", "value": "considerably decreased serum insulin level"}, {"measurement": "percent change for GLP-1 between time 0 and one hour after oral dosing", "setting": "[2]", "value": "the difference was significant"}, {"measurement": "GLP-2 gut peptide hormone", "setting": "[2]; one hour after dosing", "value": "trend for GLP-2 gut peptide hormone increase"}, {"measurement": "PYY gut peptide hormone", "setting": "[2]; one hour after dosing", "value": "trend for PYY gut peptide hormone increase"}, {"measurement": "gut-restricted", "setting": "[3]", "value": "~99", "unit": "%"}, {"measurement": "safe dosing in phase 1 clinical trial", "setting": "[3]", "value": "safely dosed to 240 mg PO BID"}, {"measurement": "fasting blood glucose levels", "setting": "[4]; vs vehicle controls, day 28 and day 56", "value": "significantly decreased fasting blood glucose levels"}, {"measurement": "high-density lipoprotein (HDL) levels", "setting": "[4]; vs vehicle controls, day 56 (FIG. 22B)", "value": "significantly decreased high-density lipoprotein (HDL) levels"}, {"measurement": "weight loss", "setting": "[4]; 56-day study summary", "value": "significant weight loss; also recorded: statistically significant reduction of weight in the DA group versus the sitagliptin group"}, {"measurement": "effect on body weight (relative body weight percentage and relative body weight change)", "setting": "[4]; DA 75 mg/kg BID, sitagliptin 10 mg/kg QD by gavage, 8 weeks", "value": "much greater effect on body weight"}, {"measurement": "effect on body weight", "setting": "[4]; day 56", "value": "significant effect on body weight"}, {"measurement": "translationally relevant biomarkers (blood glucose, HbA1C, insulin, triglycerides, LDL cholesterol, total cholesterol)", "setting": "[4]; relative to sitagliptin alone", "value": "superior benefit relative to sitagliptin alone"}, {"measurement": "NAFLD Activity Score based on blinded histopathologic review", "setting": "[5]; 12 weeks, DA 75 then 50 mg/kg BID by gavage, semaglutide 10 mmol/kg sc QD", "value": "significantly improved NAFLD Activity Score"}, {"measurement": "body weight and body weight change", "setting": "[5]; 12 weeks, DA 75 then 50 mg/kg BID, semaglutide 10 mmol/kg sc QD", "value": "remarkable effect on body weight"}, {"measurement": "HDLs", "setting": "[5]; end of study", "value": "significantly decreased"}, {"measurement": "LDLs", "setting": "[5]; end of study", "value": "significantly decreased"}, {"measurement": "TGs", "setting": "[5]; end of study", "value": "significantly decreased"}, {"measurement": "Control-adjusted Percent Change in Fasting Blood Glucose", "setting": "ob/ob mice", "value": "−29.3", "unit": "%*"}, {"measurement": "Control-adjusted Percent Change in HbA1c Level", "setting": "ob/ob mice", "value": "+0.8%"}, {"measurement": "Control-adjusted Percent Change in Insulin Level", "setting": "ob/ob mice", "value": "+4.3%"}, {"measurement": "Control-adjusted Percent Change in LDL Level", "setting": "ob/ob mice", "value": "−27.5", "unit": "%*"}, {"measurement": "Control-adjusted Percent Change in TG Level", "setting": "ob/ob mice", "value": "−21.2", "unit": "%*"}, {"measurement": "Control-adjusted Percent Change in Body Weight Gain", "setting": "[6]; DA 75 mg/kg BID for 8 weeks", "value": "−33.9", "unit": "%*"}, {"measurement": "Control-adjusted Percent Change in Fasting Blood Glucose", "setting": "[6]; DA 75 mg/kg BID for 8 weeks", "value": "−5.3", "unit": "%"}, {"measurement": "Control-adjusted Percent Change in GLP-1 Level", "setting": "[6]; DA 75 mg/kg BID for 8 weeks", "value": "+27.5%*"}, {"measurement": "Control-adjusted Percent Change in Insulin Level", "setting": "[6]; DA 75 mg/kg BID for 8 weeks", "value": "−42.9", "unit": "%"}, {"measurement": "Control-adjusted Percent Change in Lipid Levels: LDL", "setting": "[6]; DA 75 mg/kg BID for 8 weeks", "value": "−18.3", "unit": "% in LDL"}, {"measurement": "Control-adjusted Percent Change in HbA1c Level", "setting": "[6]; DA 75 mg/kg BID, at the end of Week 4", "value": "−3.7%* (at the"}, {"measurement": "duration of observed appetite suppression effect", "setting": "[7]", "value": "about 8 hours"}]}
{"compound": "O=C1[C@H](CC[C@H](O)c2ccc(F)cc2)[C@@H](c2ccc(O)cc2)N1c1ccc(F)cc1", "note": "[Ezetimibe]", "values": [{"measurement": "reduction of LDL cholesterol", "setting": "[8]", "value": "about 18%"}]}
{"compound": "PYY (3-36): DPP-4 cleaved form of the gut peptide hormone PYY", "values": [{"measurement": "half-life", "setting": "[9]", "value": "< 30", "unit": "min"}]}
{"compound": "PYY: gut peptide hormone released from L-cells", "values": [{"measurement": "half-life", "setting": "[10]", "value": "9 to 14", "unit": "min"}]}
